Earlier results, collected in patent US20250019715A1, “Ribosomal Biosynthesis Of Moroidin Peptides In Plants” (Whitehead Institute for Biomedical Research, priority 2021, published 2025).
Ends that are not written are not given here.

Assays:
[1] = system: tubulin polymerization; settings: qualitative statement from prior knowledge
[2] = system: pain sensation; settings: isolated as pain-causing agent from Dendrocnide moroides

Row | Compound | inhibitory activity against tubulin polymerization [1] | pain-causing activity [2]
1 | CC(C)C[C@@H]1NC(=O)[C@@H](NC(=O)[C@@H]2CCC(=O)N2)[C@@H](C(C)C)c2ccc3c4c([nH]c3c2)-n2cnc(c2)C[C@@H](C(=O)O)NC(=O)CNC(=O)[C@H](CCCN=C(N)N)NC(=O)[C@H](C4)NC(=O)[C@H](C(C)C)NC1=O [moroidin] | potent inhibitory activity | pain-causing agent
2 | celogentin C (QLLVWPRH; bridge (positions not given here); also: bicyclic crosslinks, places not given here) [moroidin structural analog from Celosia argentea, core peptide QLLVWPRH] | potent inhibitory activity | –
